In patent US20230203060A1 (GENFLEET THERAPEUTICS (SHANGHAI) INC., priority 2020, published 2023) one finds IC50 data, which are given here for 27 molecules.

Test [1] has as its system A549 cells (KRAS G12S mutant). Briefly: Cell proliferation inhibition experiment, 3D spheroid, CellTiter-Glo, A549. The following applies: Homo sapiens, A549, 120 h, A549 (KRAS G12S mutant) 3D spheroid, 5 days with compound, CellTiter-Glo; read-out: A549 IC50. The test is classed as cell-based, human. An outline of the steps: (§1)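 3D spheroid format; 800 H358 / 400 A549 cells/well, 2% FBS. Cpd 3.16-fold series, 0.1% DMSO, 5 d. Readout CellTiter-Glo luminescence; IR% vs DMSO control and medium blank; 4-parameter IC50.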
A general note: In ATP-based viability assays light output follows the ATP content of the culture.

In test [2] the test system is KRAS G12C mutant NCI-H358 cells. As to the kind of experiment: Cell proliferation inhibition experiment, 3D spheroid, CellTiter-Glo, NCI-H358. The following applies: Homo sapiens, NCI-H358, 120 h, NCI-H358 (KRAS G12C mutant) 3D spheroid, 5 days with compound, CellTiter-Glo; read-out: H358 IC50. The test is classed as cell-based, human. The method in brief:
as §1

Bounds are passed on as bounds.

For `C=CC(=O)N1CCN2C(=O)c3c(N4CC(N(C)CC(F)(F)F)CC4(C)C)nc(-c4ccccc4F)c(Cl)c3OC[C@H]2C1` (mixture of isomers) [Z491a, (6aR)-8-acryloyl-4-chloro-1-(2,2-dimethyl-4-(methyl(2,2,2-trifluoroethyl)amino)pyrrolidin-1-yl)-3-(2-fluorophenyl)-6,6a,7,8,9,10-hexahydro-12H-pyrazino[2,1-c]pyrido[3,4-f][1,4]oxazepin-12-one], the results for the IC50 in test [1] and in test [2] were 4030 nM and 2 nM, respectively.
Regarding `C=CC(=O)N1CCN2C(=O)c3c(N4CC[C@H](N(C)C)C4(C)C)nc(-c4ccccc4F)c(Cl)c3OC[C@H]2C1` [Z502-2, (6aR)-8-acryloyl-4-chloro-1-(3-(dimethylamino)-2,2-dimethylpyrrolidin-1-yl)-3-(2-fluorophenyl)-6,6a,7,8,9,10-hexahydro-12H-pyrazino[2,1-c]pyrido[3,4-f][1,4]oxazepin-12(6aH)-one], the figures for the half-inhibitory concentration (IC50) in test [1] and in test [2] were 6140 nM and 11 nM, respectively.
As for `C=CC(=O)N1CCN2C(=O)c3c(N4CCN(C)C[C@@H]4C)nc(-c4ccccc4F)c(Cl)c3OC[C@H]2C1` [Z407-1, (R)-8-acryloyl-4-chloro-1-((S)-2,4-dimethylpiperazin-1-yl)-3-(2-fluorophenyl)-6,6a,7,8,9,10-hexahydro-12H-pyrazino[2,1-c]pyrido[3,4-f][1,4]oxazepin-12-one], the IC50 (usually the point on the concentration scale where inhibition reaches its midpoint) in test [1] was 9160 nM; in test [2], 18.8 nM.
As to `C=CC(=O)N1CCN2C(=O)c3c(N4CCC5CC54)nc(-c4c(O)cccc4F)c(Cl)c3OC[C@H]2C1` (stereo partly drawn) [Z39, (6aR)-8-acryloyl-1-(2-azabicyclo[3.1.0]hexart-2-yl)-4-chloro-3-(2-fluoro-6-hydroxyphenyl)-6,6a,7,8,9,10-hexahydro-12H-pyrazino[2,1-c]pyrido[3,4-f][1,4]oxazepin-12-one], the 50% inhibitory concentration (IC50) in test [1] was found to be 3050 nM; in test [2], 9 nM.
Taken in the same sequence, the figures for `C=CC(=O)N1CCN2C(=O)c3c(N4C[C@@H](N(C)C)CC4(C)C)nc(-c4c(F)ccc(F)c4O)c(Cl)c3OC[C@H]2C1` [Z475-1, (6aR)-8-acryloyl-4-chloro-3-(3,6-difluoro-2-hydroxyphenyl)-1-((S)-4-(dimethylamino)-2,2-dimethylpyrrolidin-1-yl)-6,6a,7,8,9,10-hexahydro-12H-pyrazino[2,1-c]pyrido[3,4-f][1,4]oxazepin-12-one] were 5170 nM and 2 nM.
Taken in the same sequence, the figures for `C=CC(=O)N1CCN2C(=O)c3c(N4C[C@@H](N5CCN(C)CC5)C[C@@H]4C)nc(-c4ccccc4F)c(Cl)c3OC[C@H]2C1` [Z470-2] were 9610 nM and 3 nM.
The corresponding values for `C=CC(=O)N1CCN2C(=O)c3c(N4C[C@@H](N(C)CCF)CC4(C)C)nc(-c4ccccc4F)c(Cl)c3OC[C@H]2C1` (single isomer, unassigned) [Z660-1] are 3250 nM and 1.7 nM.
With `C=CC(=O)N1CCN2C(=O)c3c(N4CCC[C@@H]4C)nc(-c4c(O)cccc4F)c(Cl)c3OC[C@H]2C1` [Z49, (6aR)-8-acryloyl-1-((S)-2-methylpyrrolidin-1-yl)-4-chloro-3-(2-fluoro-6-hydroxyphenyl)-6,6a,7,8,9,10-hexahydro-12H-pyrazino[2,1-c]pyrido[3,4-f][1,4]oxazepin-12-one], the figures for the IC50 in test [1] and in test [2] were more than 5000 nM and 4 nM, respectively.
The corresponding values for `C=CC(=O)N1CCN2C(=O)c3c(N4C[C@H](N(C)CCOC)CC4(C)C)nc(-c4ccccc4F)c(Cl)c3OC[C@H]2C1` (single isomer, unassigned) [Z406-1] are 2120 nM and 4 nM.
On to `C=CC(=O)N1CCN2C(=O)c3c(N4C[C@@H](N5CCN(C)CC5)CC4(C)C)nc(-c4c(F)cccc4Cl)c(Cl)c3OC[C@H]2C1` (single isomer, unassigned) [Z635-1], for which the IC50 was 2280 nM in test [1] and 0.8 nM in test [2].
Turning to `C=CC(=O)N1CCN2C(=O)c3c(N4CC(O)CC4(C)C)nc(-c4c(F)cccc4OC)c(F)c3OC[C@H]2C1` (single isomer, unassigned) [Z450], the IC50 amounted to 20500 nM in test [1] and 13.1 nM in test [2].
The corresponding values for `C=CC(=O)N1CCN2C(=O)c3c(N4C[C@@H](NCC(F)(F)F)CC4(C)C)nc(-c4ccccc4F)c(Cl)c3OC[C@H]2C1` (single isomer, unassigned) [Z662-1] are 4090 nM and 3 nM.
Take `C=CC(=O)N1CCN2C(=O)c3c(N4CC(N5CCOCC5)CC4(C)C)nc(-c4ccccc4F)c(Cl)c3OC[C@H]2C1` (single isomer, unassigned) [Z468-1]: the half-inhibitory concentration (IC50) in test [1] came to 3280 nM; in test [2] it was 4 nM.
The corresponding values for `C=CC(=O)N1CCN2C(=O)c3c(N4C[C@@H](N5CCN(C)CC5)CC4(C)C)nc(-c4ccccc4F)c(F)c3OC[C@H]2C1` (single isomer, unassigned) [Z474-1] are 7950 nM and 8.3 nM.
In the case of `C=CC(=O)N1CCN2C(=O)c3c(N4C[C@@H](N(C)C)CC4(C)C)nc(-c4cccc(C)c4F)c(Cl)c3OC[C@H]2C1` (single isomer, unassigned) [Z472-1], the IC50 in test [1] was 1740 nM; in test [2] it was 16 nM.
Turning to `C=CC(=O)N1CCN2C(=O)c3c(N[C@H](C)c4ccccc4)nc(-c4c(O)cccc4F)c(Cl)c3OC[C@H]2C1` [Z28, (6aR)-8-acryloyl-4-chloro-3-(2-fluoro-6-hydroxyphenyl)-1-(((R)-1-phenylethyl)amino)-6,6a,7,8,9,10-hexahydro-12H-pyrazino[2,1-c]pyrido[3,4-f][1,4]oxazepin-12-one], the IC50 was more than 5000 nM in test [1] and 62 nM in test [2].
For the molecule `C=CC(=O)N1CCN2C(=O)c3c(N4CC(NC)CC4(C)C)nc(-c4ccccc4F)c(Cl)c3OC[C@H]2C1` (stereo partly drawn) [Z661, (6aR)-8-acryloyl-4-chloro-1-(2,2-dimethyl-4-(methylamino)pyrrolidin-1-yl)-3-(2-fluorophenyl)-6,6a,7,8,9,10-hexahydro-12H-pyrazino[2,1-c]pyrido[3,4-f][1,4]oxazepin-12-one], the 50% inhibitory concentration (IC50) in test [1] amounted to 2660 nM; in test [2], 4 nM.
`C=CC(=O)N1CCN2C(=O)c3c(N4CC(N(C)CC(F)F)CC4(C)C)nc(-c4ccccc4F)c(Cl)c3OCC2C1` (single isomer, unassigned) [Z659-2]: the values for the half-inhibitory concentration (IC50) in test [1] and in test [2] were 2660 nM and 1 nM, respectively.
On to `C=CC(=O)N1CCN2C(=O)c3c(N4C[C@H](N5CC(F)(F)C5)CC4(C)C)nc(-c4ccccc4F)c(Cl)c3OC[C@H]2C1` (single isomer, unassigned) [Z525-1], for which the IC50 in test [1] turned out to be 2840 nM; in test [2], 281 nM.
Taken in the same sequence, the figures for `C=CC(=O)N1CCN2C(=O)c3c(N4CCOC(C)(C)C4)nc(-c4c(O)cccc4F)c(Cl)c3OC[C@H]2C1` [Z37, (6aR)-8-acryloyl-4-chloro-1-(2,2-dimethylmorpholino)-3-(2-fluoro-6-hydroxyphenyl)-6,6a,7,8,9,10-hexahydro-12H-pyrazino[2,1-c]pyrido[3,4-f][1,4]oxazepin-12-one] were more than 30000 nM and 9 nM.
The corresponding values for `C=CC(=O)N1CCN2C(=O)c3c(N4C[C@@H](N5CC(F)(F)C5)CC4(C)C)nc(-c4ccccc4F)c(Cl)c3OC[C@H]2C1` (single isomer, unassigned) [Z525-2] are 5740 nM and 7.8 nM.
The corresponding values for `C=CC(=O)N1CCN2C(=O)c3c(N4C[C@H](N5CCN(C)CC5)CC4(C)C)nc(-c4c(F)cccc4Cl)c(Cl)c3OC[C@H]2C1` (single isomer, unassigned) [Z635-2] are 2970 nM and 7 nM.
For `C=CC(=O)N1CCN2C(=O)c3c(N4C[C@@H](N(C)C)CC4(C)C)nc(-c4ccccc4)c(Cl)c3OC[C@H]2C1` (single isomer, unassigned) [Z655-1], the IC50 in test [1] stood at 3320 nM; in test [2] it was 38 nM.
The corresponding values for `C=CC(=O)N1CCN2C(=O)c3c(N4CC(N5CCC(F)(F)C5)CC4(C)C)nc(-c4ccccc4F)c(Cl)c3OC[C@H]2C1` (stereo partly drawn) [Z532, (6aR)-8-acryloyl-4-chloro-1-(3,3-difluoro-5′,5′-dimethyl-[1,3′-bipyrrolidin]-1′-yl)-3-(2-fluorophenyl)-6,6a,7,8,9,10-hexahydro-12H-pyrazino[2,1-c]pyrido[3,4-f][1,4]oxazepin-12-one] are 3170 nM and 5.8 nM.
Taken in the same sequence, the figures for `C=CC(=O)N1CCN2C(=O)c3c(N4CCCC45CC5)nc(-c4c(O)cccc4F)c(Cl)c3OC[C@H]2C1` [Z56, (6aR)-8-acryloyl-4-chloro-3-(2-fluoro-6-hydroxyphenyl)-1-(4-azaspiro[2.4]heptan-4-yl)-6,6a,7,8,9,10-hexahydro-12H-pyrazino[2,1-c]pyrido[3,4-f][1,4]oxazepin-12-one] were more than 7000 nM and 17 nM.
Taken in the same sequence, the figures for `C=CC(=O)N1CCN2C(=O)c3c(N4C[C@H](N5CC(F)C5)CC4(C)C)nc(-c4ccccc4F)c(F)c3OC[C@H]2C1` [Z654-2, (R)-8-acryloyl-4-fluoro-1-((R)-4-(3-fluoroazetidin-1-yl)-2,2-dimethylpyrrolidin-1-yl)-3-(2-fluorophenyl)-6,6a,7,8,9,10-hexahydro-12H-pyrazino[2,1-c]pyrido[3,4-f][1,4]oxazepin-12-one] were 8580 nM and 15 nM.
With `C=CC(=O)N1CCN2C(=O)c3c(NC(C)(C)C)nc(-c4ccccc4F)c(Cl)c3OC[C@H]2C1` [Z457, (R)-8-acryloyl-1-(tert-butylamino)-4-chloro-3-(2-fluorophenyl)-6,6a,7,8,9,10-hexahydro-12H-pyrazino[2,1-c]pyrido[3,4-f][1,4]oxazepin-12-one], the IC50 in test [1] was 2950 nM; in test [2], 62.7 nM.
